Results taken from patent publication US4081548A, “Antibiotics” (Merck & Co., Inc., priority 1976, dated 1978).
In brackets after ≈: the same amount, converted by molar mass.

What was measured:
Escherichia coli 2017 = experiment: agar dilution method, Table 2; assay type: cell-based; conditions: Mueller-Hinton agar, 18 hours, 37° C., strain resistance: --, read-out: Minimum Inhibitory Concentration
Experimental: (§1) A further evaluation of substantially pure antibiotic employed the agar dilution method. An inoculum of 2 × 10^4 to 1 × 10^5 organisms is applied as a 0.002 ml. droplet to the surface of Mueller-Hinton agar containing serial, twofold dilutions of antibiotic over the range 0.01 to 73 μg./ml. The results (Table 2) are reported as the minimum inhibitory concentration, in μg./ml., that being the lowest antibiotic concentration at which the growth of the test organism is inhibited over a period of 18 hours at 37° C.

Escherichia coli 2482 = experiment: agar dilution method, Table 2; assay type: cell-based; conditions: Mueller-Hinton agar, 18 hours, 37° C., strain resistance: --, read-out: Minimum Inhibitory Concentration
Experimental: as §1

Escherichia coli 2964 = experiment: agar dilution method, Table 2; assay type: cell-based; conditions: Mueller-Hinton agar, 18 hours, 37° C., strain resistance: P, read-out: Minimum Inhibitory Concentration
Experimental: as §1

Klebsiella 2921 = experiment: agar dilution method, Table 2; assay type: cell-based; conditions: Mueller-Hinton agar, 18 hours, 37° C., strain resistance: P, read-out: Minimum Inhibitory Concentration
Experimental: as §1

Klebsiella 2922 = experiment: agar dilution method, Table 2; assay type: cell-based; conditions: Mueller-Hinton agar, 18 hours, 37° C., strain resistance: P, read-out: Minimum Inhibitory Concentration
Experimental: as §1

Proteus mirabilis 2830 = experiment: agar dilution method, Table 2; assay type: cell-based; conditions: Mueller-Hinton agar, 18 hours, 37° C., strain resistance: P, read-out: Minimum Inhibitory Concentration
Experimental: as §1

[1] = test system: Pseudomonas aeruginosa 2616; experiment: agar dilution method, Table 2; assay type: cell-based; conditions: Mueller-Hinton agar, 18 hours, 37° C., strain resistance: P, read-out: Minimum Inhibitory Concentration
Experimental: as §1

[2] = test system: Pseudomonas aeruginosa 2824; experiment: agar dilution method, Table 2; assay type: cell-based; conditions: Mueller-Hinton agar, 18 hours, 37° C., strain resistance: P, read-out: Minimum Inhibitory Concentration
Experimental: as §1

[3] = test system: Pseudomonas aeruginosa 3210; experiment: agar dilution method, Table 2; assay type: cell-based; conditions: Mueller-Hinton agar, 18 hours, 37° C., strain resistance: P, read-out: Minimum Inhibitory Concentration
Experimental: as §1

Serratia 2840 = experiment: agar dilution method, Table 2; assay type: cell-based; conditions: Mueller-Hinton agar, 18 hours, 37° C., strain resistance: P, read-out: Minimum Inhibitory Concentration
Experimental: as §1

[4] = test system: Staphylococcus aureus 2314; experiment: agar dilution method, Table 2; assay type: cell-based; conditions: Mueller-Hinton agar, 18 hours, 37° C., strain resistance: P, read-out: Minimum Inhibitory Concentration
Experimental: as §1

Staph. aureus 2949 = experiment: in vivo efficacy in infected mice, Table 3; parameters: species or system Staphylococcus aureus; conditions: 168 h, day 7 survival
Experimental: (§2) In determining the in vivo activity, thienamycin is dissolved in and diluted with 0.15M NaCl, 0.01M sodium phosphate, pH 7.0, to provide five fourfold concentrations of drug for testing. Female white Swiss mice, averaging about 21 g. in weight, were infected intraperitoneally and subcutaneously with the test organism suspended in broth. The numbers of organisms injected were determined by standard plate-count techniques. At the time of infection, and again 6 hours later, certain of the mice were treated intraperitoneally, subcutaneously and orally with the antibiotic. Five mice were used for each concentration of drug tested. An additional two mice, not infected, were treated with the antibiotic to determine whether the amount of agent injected was toxic. Controls of five mice for each of several dilutions of the infecting culture were included in each test in order to calculate the numbers of organisms that were lethal to 50% of the infected, untreated mice (LD50). This calculation was made using survival data of the seventh day after infection, at which time the amount of drug that should protect 50% of the infected mice (ED50) also was calculated.
(§3) All animals receiving this challenge and not treated with antibiotic died within 48 hours of the infection. The efficacy of thienamycin having a potency of 30,000 units per mg. is recorded in Table 3: […]

E. coli 2017 = experiment: in vivo efficacy in infected mice, Table 3; conditions: Escherichia coli, 2017, ip, 168 h, i.p. x2 (at infection and 6 hours later), No. LD50 9, day 7 survival
Experimental: as §2, §3

[5] = test system: Pseudomonas aeruginosa 3210; experiment: in vivo efficacy in infected mice, Table 3; conditions: 168 h, No. LD50 7, day 7 survival
Experimental: as §2, §3

solubility = assay type: physicochemical
[6] = pKa from pH induced shift in ultraviolet absorption spectrum; assay type: physicochemical; conditions: acidic function; 30 mM. phosphate buffer; read-out: pKa1
Experimental: Thienamycin is an internally neutralized amphoteric substance, whose acidic function has a pKa1 = 3.08 when measured in 30 mM. phosphate buffer, taking advantage of the pH induced shift in ultraviolet absorption spectrum.

[7] = stability in aqueous solution; assay type: physicochemical
inactivation by cysteine = assay type: physicochemical; conditions: cysteine 4 μmoles per ml., pH 7.0, 20° C.
β-lactamase = β-lactamase (Enterobacter cloacae, UniProt P05364); experiment: exposure to β-lactamase preparations; assay type: biochemical; conditions: β-lactamase from sonic disintegration of a strain of Enterobacter cloacae
Excerpt: Finally, antibiotic activity and absorbance are extinguished on exposure to preparations of β-lactamase obtained by the sonic disintegration of a strain of Enterobacter cloacae.

[8] = test system: Staphylococcus aureus ATCC 6538P; experiment: disc-diffusion assay of antibacterial activity (5 ml plates); assay type: cell-based; conditions: one unit = same inhibition as 1 μg. of cephalothin/ml.
Experimental: Assays of antibacterial activity are run according to the following disc-diffusion procedure unless otherwise indicated. The assay plates are prepared in the following manner. An overnight growth of the assay organism, Staphylococcus aureus ATCC 6538P, in nutrient broth plus 0.2% yeast extract is diluted with nutrient broth plus 0.2% yeast extract to a suspension having 55% transmittance at a wavelength of 660 mμ. This suspension is added to Difco nutrient agar supplemented with 2.0 g./l. Difco yeast extract, at 47° C. to 48° C., to make a composition containing 33.2 ml. of the suspension per liter of agar. Five ml. of this suspension is poured into petri dishes of 85 mm. diameter, and these plates are chilled and held at 4° C. until used (5 day maximum).
Samples of the antibiotic to be assayed are diluted to an appropriate concentration in phosphate buffer at pH 7. Filter-paper discs, 0.5-inch in diameter, are dipped into the test solution and placed on the surface of the assay plate; two discs for each sample are normally placed on one plate opposite to one another. The plates are incubated overnight at 37° C. and the zone of inhibition is measured as mm. diameter. The zone of inhibition measured in mm. determines relative potencies or, when compared with a purified reference standard such as cephalothin, the potency of antibiotic in units/ml. The unit of activity reported in Examples 4 through 7 is based on cephalothin standard solutions of 8, 4, 2 and 1 μg./ml. One unit is defined as the amount which calculates to produce the same inhibition as 1 μg. of cephalothin/ml. that zone of inhibition being between 16 and 21 mm. diameter.

[9] = Hydroxylamine-Extinguishable Absorbance; assay type: physicochemical; conditions: pure thienamycin; 10 mM. hydroxylamine, pH 7.0, room temperature, at least 30 min., 297 nm
Experimental: The proportion of absorbance measured at 297 nm which can be attributed to the antibiotic content in impure samples is determined by the selective extinction of this absorbance (with concommitant inactivation of antibiotic activity) upon reaction with dilute hydroxylamine.
Samples are prepared in 0.01M potassium phosphate buffer at pH 7.0 to have an initial A297 between 0.05 and 2.0. Freshly prepared, neutral hydroxylamine (NH2 OH.HCl plus NaOH to a final pH of 7) is added to a final concentration of 10 mM., and reaction is allowed to progress at room temperature for at least 30 min. The resulting A297 when substracted from the initial reading (after correction for dilution by added reagent) yields the hydroxylamine-extinguishable absorbance. Solutions of pure thienamycin show a hydroxylamine-extinguishable absorbance of 94.5%.

Chain of β-lactamase (P05364 21-381): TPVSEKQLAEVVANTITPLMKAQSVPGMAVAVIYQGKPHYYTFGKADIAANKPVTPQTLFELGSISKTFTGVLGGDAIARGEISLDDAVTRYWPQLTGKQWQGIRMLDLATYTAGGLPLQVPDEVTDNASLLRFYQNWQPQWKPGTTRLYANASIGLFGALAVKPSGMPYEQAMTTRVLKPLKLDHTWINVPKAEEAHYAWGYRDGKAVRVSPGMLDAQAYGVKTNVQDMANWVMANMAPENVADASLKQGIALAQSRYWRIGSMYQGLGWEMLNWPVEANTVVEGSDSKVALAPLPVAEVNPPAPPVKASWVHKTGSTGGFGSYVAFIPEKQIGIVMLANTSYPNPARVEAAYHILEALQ

SMILES: C[C@@H](O)[C@H]1C(=O)N2C(C(=O)O)=C(SCCN)C[C@H]12 [Thienamycin, thienamycin]
- MIC (Escherichia coli 2017): 0.15 µg/mL (≈ 0.551 µM)
- MIC (Escherichia coli 2482): 0.3 µg/mL (≈ 1.1 µM)
- MIC (Escherichia coli 2964): 0.3 µg/mL (≈ 1.1 µM)
- MIC (Klebsiella 2921): 0.3 µg/mL (≈ 1.1 µM)
- MIC (Klebsiella 2922): 0.3 µg/mL (≈ 1.1 µM)
- MIC (Proteus mirabilis 2830): 4.7 µg/mL (≈ 17.3 µM)
- MIC [1]: 4.7 µg/mL (≈ 17.3 µM)
- MIC [2]: 0.6 µg/mL (≈ 2.2 µM)
- MIC [3]: 2.4 µg/mL (≈ 8.81 µM)
- MIC (Serratia 2840): 4.7 µg/mL (≈ 17.3 µM)
- MIC [4]: 0.02 µg/mL (≈ 0.0734 µM)
- ED50 (Staph. aureus 2949; Staphylococcus aureus, 2949, ip, mice, i.p. x2 (at infection and 6 hours later), No. LD50 7): 0.012 mg/kg
- ED50 (Staph. aureus 2949; Staphylococcus aureus, 2949, po, mice fasted 24 hours, p.o. x2 (at infection and 6 hours later), No. LD50 13): 0.67 mg/kg
- ED50 (Staph. aureus 2949; Staphylococcus aureus, 2949, sc, mice, s.c. x2 (at infection and 6 hours later), No. LD50 7): 0.08 mg/kg
- ED50 (E. coli 2017): 0.375 mg/kg
- ED50 ([5]; Pseudomonas aeruginosa, 3210, ip, i.p. x3 (at infection, 2 and 4 hours)): 0.45 mg/kg
- ED50 ([5]; Pseudomonas aeruginosa, 3210, sc, s.c. x3 (at infection, 2 and 4 hours)): 2.05 mg/kg
- solubility in methanol (solubility; methanol): limited solubility in methanol
- solubility in water (solubility; water): very soluble in water
- pKa [6]: 3.08
- half-life ([7]; 1 mg./ml. in 10 mM. potassium phosphate, pH 7.0, 0° C.): 53300 min
- half-life ([7]; 1 mg./ml. in water (pH 7.0), 0° C.): 28800 min
- half-life ([7]; 12 mg./ml. in 10 mM. phosphate buffer, 10° C.): 4320 min
- coloration on storage ([7]; 12 mg./ml. in 10 mM. phosphate buffer, 10° C., by the 48th hour, initially pale yellow): deep amber coloration
- half-life ([7]; aqueous solution, pH 8.2, 30° C.): 10 min
- stability in aqueous solution ([7]; below 1 mg./ml., phosphate buffers, pH between 6 and 7): optimum stability
- half-life ([7]; pH 2.0, 30 mM. phosphate buffer, room temperature): 6.7 min
- half-life ([7]; pH 3.0, 30 mM. phosphate buffer, room temperature): 30 min
- half-life ([7]; pH 4.0, 30 mM. phosphate buffer, room temperature): 346 min
- half-life ([7]; pH 8.8 (borate buffer), 30° C.): 5.7 min
- half-life ([7]; pH 12 (0.01M sodium hydroxide), 30° C.): 2.1 min
- half-life (inactivation by cysteine): 2.5 min
- antibiotic activity and absorbance on exposure to β-lactamase (β-lactamase): extinguished
- potency (estimated / calculated) ([8]; estimated or calculated potency): 30,140 units/mg.
- potency [8]: 30,000 units/mg.
- hydroxylamine-extinguishable absorbance [9]: 94.5%
